Laboratory results taken from patent US20160158415A1, “METHOD FOR DETOXIFYING A BIOLOGICAL TISSUE” (Sorin Group Italia S.r.l., priority 2010, published 2016).
“Also recorded” adds a separate entry of the source.

Test: Fuchsine staining of free aldehyde groups on fixed, detoxified tissue (observed colour)
Set-up: species or system bovine
Details: FIG. 1 samples; detoxified at room temperature about 24 hours; homocysteic acid 1.00% w/v or taurine 0.70% w/v in phosphate buffer pH 7; weaker staining = fewer free aldehyde groups
Experimental: The efficacy of the method described herein, and therefore the occurrence of the reaction between the amino groups of the detoxifying molecule and the aldehyde groups present on the fixed tissue, is evaluated by staining of the aldehyde groups remaining free. The greater the staining intensity, the more numerous are the free aldehyde groups and, on the contrary, the weaker (or absent) the staining, the less numerous (or absent) are the free aldehyde groups present on the detoxified tissue.
The detoxification step was conducted at room temperature (20° C.), 40° C. and 50° C., for a period of time of 24 hours, using about 200 ml of solution for each tissue.
a second control sample (FIG. 1B) fixed with glutaraldehyde and detoxified with a solution containing homocysteic acid at a concentration (w/v) of 1.00% in phosphate buffer pH 7;
The tissue samples were immersed in the detoxifying solutions for about 24 hours at room temperature with gentle agitation.
The samples were immersed in the detoxifying solution for about 24 hours with gentle agitation both at room temperature and at 40° C.; the fourth sample detoxified at 50° C. was maintained immersed for 7-8 hours with gentle agitation.
Tissue staining to detect free aldehyde groups uses an acidic solution of rosaniline hydrochloride (fuchsine). […]

N[C@@H](CCS(=O)(=O)O)C(=O)O [homocysteic acid]
Staining observed: less than that of the control sample; also recorded: Violet
